Key:
acid sphingomyelinase = molecular target: T1, acid sphingomyelinase (Mus musculus, UniProt Q04519); assay: Activity of acid sphingomyelinase in lung extracts of treated mice; format: in vivo
T1 construct: from tissue; host or cells: lung homogenate of wild-type and Cftr-deficient mice
T1 sequence (Q04519 45-627): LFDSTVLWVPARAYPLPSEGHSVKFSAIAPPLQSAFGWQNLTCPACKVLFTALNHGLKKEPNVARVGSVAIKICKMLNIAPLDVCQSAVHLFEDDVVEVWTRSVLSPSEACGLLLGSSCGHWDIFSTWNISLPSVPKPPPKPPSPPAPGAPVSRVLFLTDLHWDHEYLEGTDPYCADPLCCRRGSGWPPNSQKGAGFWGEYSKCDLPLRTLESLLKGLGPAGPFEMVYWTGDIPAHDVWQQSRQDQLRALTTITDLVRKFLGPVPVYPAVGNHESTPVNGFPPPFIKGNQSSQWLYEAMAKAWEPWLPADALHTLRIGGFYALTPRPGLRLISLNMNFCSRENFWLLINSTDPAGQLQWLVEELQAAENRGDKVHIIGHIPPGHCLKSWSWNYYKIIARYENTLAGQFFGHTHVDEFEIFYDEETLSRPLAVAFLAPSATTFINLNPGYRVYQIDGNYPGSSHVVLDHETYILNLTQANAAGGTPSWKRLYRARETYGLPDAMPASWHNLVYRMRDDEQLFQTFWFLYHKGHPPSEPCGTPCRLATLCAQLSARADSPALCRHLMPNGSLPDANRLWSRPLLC
Method: The inhalation was carried out with the aid of an inhaler (Pariboy® SX). The liquid reservoir in this inhaler was connected to an air nozzle, whereby it was possible to produce a fine aerosol which was inhaled through a mask by the mice. For this, the noses of the experimental animals were pressed manually into the opening of the mask for 10 minutes. This permitted excellent control of the inhalation process. All mice were subjected to an inhalation process 3 times at an interval of 12 hours. The lungs were shock-frozen, homogenized under liquid nitrogen and subsequently transferred to a buffer of 250 mM sodium acetate (pH 5.0), 1.3 mM EDTA and 1% NP40. The homogenizate was then subjected to ultrasound treatment (ultrasonic processor tip sonicator) a total of three times. Subsequently, an aliquot of the samples was diluted with 250 mM sodium acetate (pH 5.0), 1.3 mM EDTA 0.1% NP40 and incubated with 0.05 μCi of [^14C]sphingomyelin per sample (52 mCi/mmol; […] The radioactive sample of [^14C]sphingomyelin was dried, resuspended in 250 mM sodium acetate (pH 5.0), 1.3 mM EDTA and 0.1% NP40 and subsequently subjected to ultrasound treatment for 10 minutes, before it was added to the homogenized samples. The samples were incubated for 30 minutes in total at about 37° C. Subsequently, the enzymatic reaction was ended by extraction (extraction with a solvent mixture of chloroform and methanol in the volume ratio chloroform/methanol 2:1). The samples were then centrifuged and an aliquot of the aqueous phase was in each case subjected to scintillation counting to determine the release of [^14C]phosphorylcholine from [^14C] sphingomyelin. Wild-type mice and Cftr-deficient mice (Cftr-knockout mice) inhaled a solution of 4 mg/l of amitriptyline, 12.5 mg/l of trimipramine, 9 mg/l of desipramine, 8 mg/l of chlorprothixene, 4.5 mg/l of fluoxetine, 5 mg/l of amlodipine and 35 mg/l of sertraline. All substances were dissolved in water or DMSO for this and subsequently diluted at least 1:100 (for DMSO: at least 1:1000) in 0.9% sodium chloride solution. The mice inhaled the solutions for 10 minutes. An inhaler (Pariboy®) was used for the inhalation. In the course of the inhalation time, approximately 2 ml of the solutions administered were atomized. The inhalation was carried out a total of three times at intervals of 12 hours. The lungs were removed 60 minutes after the last inhalation, and the activity of the acid sphingomyelinase was determined in the lung extracts. Wild-type mice and Cftr-deficient mice were in each case inhaled 1 ml of an amitriptyline solution (4 mg/l of H2O) for 20 minutes with the aid of a customary pharmacy inhalation device. The amount of amitriptyline actually administered was therefore about 4 μg. In parallel to this, other wild-type mice and Cftr-deficient mice were in each case administered 100 μl of an amitriptyline solution (2.5 g/l of H2O), so that the amount of amitriptyline actually administered in these animals was 250 μg. The injections were administered twice daily over 2 days. In the case of the inhalative treatment, the lungs of the mice were extracted 60 minutes or 12 hours after ending the inhalation, where in the case of the 12-hour experiments the inhalation was repeated after 6 hours. In the case of the mice treated by an injection solution, their lungs were removed 12 hours after the last injection.

ceramide = assay: Pulmonary ceramide concentration in lung extracts of treated mice; format: in vivo
Method: The inhalation was carried out with the aid of an inhaler (Pariboy® SX). The liquid reservoir in this inhaler was connected to an air nozzle, whereby it was possible to produce a fine aerosol which was inhaled through a mask by the mice. For this, the noses of the experimental animals were pressed manually into the opening of the mask for 10 minutes. This permitted excellent control of the inhalation process. All mice were subjected to an inhalation process 3 times at an interval of 12 hours.
After killing the experimental animals, the lungs were removed, homogenized under liquid nitrogen and added to a mixture of chloroform, methanol and 1N hydrochloric acid (100:100:1, v/v/v). After addition of 200 μl of H2O, the samples were centrifuged for 5 minutes (14,000 rpm, rotations per minute). The lower phase was then collected, dried and subjected to an alkaline hydrolysis of diacylglycerol in 0.1 N methanolic potassium hydroxide solution at 37° C. for 60 minutes. The samples were extracted again, and the lower phase was dried and subsequently resuspended in 20 μl of a detergent solution (7.5% (w/v) of n-octylglucopyranoside, 5 mM cardiolipin in 1 mM diethylenetriaminepentaacetic acid (DTPA)). After an ultrasound treatment (10 minutes), the samples were added to 70 μl of a reaction mixture which contained 10 μl of diacylglycerol kinase (GE Healthcare Europe, Munich, Germany), 0.1 M imidazole/HCl (pH 6.6), 0.2 mM diethylenetriaminepentaacetic acid (pH 6.6), 70 mM sodium chloride, 17 mM magnesium chloride, 1.4 mM EGTA, 2 mM DTT, 1 μM ATP and 10 μCi of [^32P]γATP. The kinase reaction was carried out for 30 minutes at room temperature and subsequently ended by addition of 1 ml of chloroform:methanol:1 N HCl (100:100:1, v/v/v), 170 μl of buffered saline solution (135 mM sodium chloride, 1.5 mM calcium chloride, 0.5 mM magnesium chloride, 5.6 mM glucose, 10 mM HEPES, pH 7.2) and 30 μl of a 100 mM EDTA solution. The samples were then vortexed and the resulting phases were separated. […] The incorporation of [^32P] in ceramide was quantified by means of liquid scintillation counting, since the spots […]. The amounts of ceramide were determined by comparison with a standard curve using C16-ceramide as substrate.
(§1) Wild-type mice and Cftr-deficient mice were inhaled with a solution of 4 mg/l of amitriptyline, 12.5 mg/l of trimipramine, 9 mg/l of desipramine, 8 mg/l of chlorprothixene, 4.5 mg/l of fluoxetine, 5 mg/l of amlodipine and 35 mg/l of sertraline. […] The lungs were removed from the experimental animals 60 minutes after the inhalation, and the pulmonary ceramide concentration in the lung extracts was determined. […]

Pseudomonas aeruginosa = assay: Susceptibility to infection: Pseudomonas aeruginosa bacterial count in the lung after intranasal infection; format: in vivo, mice
Method: The bacteria were cultured for 14 to 14.5 hours on TSA agar plates (Becton Dickinson). Fresh plates were used for at most 2 weeks for this. The bacteria were then transferred to Erlenmeyer flasks in 40 ml of a prewarmed and sterile buffer (TSB, Becton Dickinson). The optical density (OD) or extinction was adjusted to 0.225 (corresponds to 5.5×10^8 CFU/ml) and the bacteria were incubated for 60 minutes at 37° C. with shaking at 125 rpm. The quality of the agar plates and of TSB and the shaking speed were crucial for the obtainment of reproducible results. In this way, it was possible to obtain a Pseudomonas aeruginosa population exactly in the early log phase (the bacteria replicated approximately by 10-fold within an incubation time of 60 minutes). The fact that the bacteria were bacteria of the early log phase was extremely important to obtain reproducible conditions for the subsequent infection with the experimental animals. The bacteria were centrifuged at 2800 rpm (1600×g) in a 50 ml tube. The supernatant was then carefully removed and the bacteria were resuspended in 10 ml of RPMI-1640, supplemented with 10 mM HEPES (pH 7.3). The suspension was transferred to a 15 ml tube and subsequently washed twice. Finally, the bacteria were resuspended in prewarmed HEPES/salt (HS; 132 mM NaCl, 20 mM HEPES (pH 7.4), 5 mM KCl, 1 mM CaCl2, 0.7 mM MgCl2, 0.8 mM MgSO4) and the bacterial optical density was determined. The bacteria were then diluted with prewarmed H/S to a concentration of 10^8 CFU/20 μl . The mice were then infected within the next 10 minutes. For this purpose, a syringe with a volume of 1 ml and a 30 gauge needle was used. The mice were anesthetized in ether for 10 to 15 seconds. Following this, the needle was immediately inserted 2 mm into the noses of the mice and the bacteria were carefully injected. Between the first and the last mouse which were infected, a time interval of at most 10 minutes was allowed to pass to avoid variations in the formation of viable bacterial colonies in this way. […] Subsequently, the number of bacteria in the lung was measured as a measure of the sensitivity of the mice to developing a Pseudomonas aeruginosa infection. […] The bacterial colonies were counted after 15 hours growth at 37° C. as a measure of the number of pulmonary bacteria and thus as a measure of an infection.
as §1, with “susceptibility to infection of the experimental animals” for “pulmonary ceramide concentration”, “relation to Pseudomonas aeruginosa” for “the lung extracts”

How did the “enzyme activity of acid sphingomyelinase in lung extracts” value (shortened to “enzyme activity”) (acid sphingomyelinase; Cftr-deficient mice, 12 h after intraperitoneal injection of 250 micrograms, twice daily over 2 days) turn out when `CN(C)CCC=C1c2ccccc2CCc2ccccc21` [amitriptyline] was run?
Its value is 151±17 pmol/min/mg of protein.

And the “enzyme activity” value (acid sphingomyelinase; Cftr-deficient mice, lungs extracted 60 min after inhalation of 1 ml amitriptyline solution (4 mg/l))?
Its value is 148±17 pmol/min/mg of protein.

And the “enzyme activity” value (acid sphingomyelinase; Cftr-deficient mice, lungs extracted 12 h after inhalation of 1 ml amitriptyline solution (4 mg/l))?
The value was 167±9 pmol/min/mg of protein.

And the “enzyme activity” value (acid sphingomyelinase; wild-type mice, 12 h after intraperitoneal injection of 250 micrograms, twice daily over 2 days)?
Its value is 168±19 pmol/min/mg of protein.

And the “enzyme activity” value (acid sphingomyelinase; wild-type mice, lungs extracted 60 min after inhalation of 1 ml amitriptyline solution (4 mg/l))?
The value was 176±18 pmol/min/mg of protein.

And the “enzyme activity” value (acid sphingomyelinase; wild-type mice, lungs extracted 12 h after inhalation of 1 ml amitriptyline solution (4 mg/l))?
The value was 200±14 pmol/min/mg of protein.

And the “ceramide concentration in lung extracts” value (ceramide; Cftr-deficient mice, 12 h after inhalation of 1 ml amitriptyline solution (4 mg/l))?
Its value is 5.2±0.79 pmol/μg of protein.

What about the “ceramide concentration in lung extracts” value (ceramide; Cftr-deficient mice, parenterally treated, 12 h after intraperitoneal injection of 250 micrograms) of the same compound?
Its value is 4.9±0.7 pmol/μg of protein.

What about the “ceramide concentration in lung extracts” value (ceramide; wild-type mice, 12 h after inhalation of 1 ml amitriptyline solution (4 mg/l)) of the same compound?
The value was 1.6±0.3 pmol/μg of protein.

And the “ceramide concentration in lung extracts” value (ceramide; wild-type mice, parenterally treated, 12 h after intraperitoneal injection of 250 micrograms)?
The value was 1.5±0.4 pmol/μg of protein.

And the “bacterial count in the lungs” value (Pseudomonas aeruginosa; Cftr-deficient mice, treated by inhalation (4 mg/l solution), 2 h after intranasal infection with 1×10^8 CFU P. aeruginosa strain 762)?
Its value is 12300±4075 CFU.

What about the “bacterial count in the lungs” value (Pseudomonas aeruginosa; Cftr-deficient mice, treated by injection solution (250 micrograms i.p.), 2 h after intranasal infection) of the same compound?
Its value is 11250±2360 CFU.

And the “bacterial count in the lungs” value (Pseudomonas aeruginosa; wild-type mice, treated by inhalation (4 mg/l solution), 2 h after intranasal infection with 1×10^8 CFU P. aeruginosa strain 762)?
The value was 3600±2892 CFU.

And the “bacterial count in the lungs” value (Pseudomonas aeruginosa; wild-type mice, treated by injection solution (250 micrograms i.p.), 2 h after intranasal infection)?
Its value is 2780±1740 CFU.
